This note sets out measurements from patent publication US20080200454A1, “CARBON-LINKED TETRAHYDRO-PYRAZOLO-PYRIDINE MODULATORS OF CATHEPSIN S” (priority 2007, published 2008).

Chain of Recombinant human cathepsin S (CatS) (P25774 115-331): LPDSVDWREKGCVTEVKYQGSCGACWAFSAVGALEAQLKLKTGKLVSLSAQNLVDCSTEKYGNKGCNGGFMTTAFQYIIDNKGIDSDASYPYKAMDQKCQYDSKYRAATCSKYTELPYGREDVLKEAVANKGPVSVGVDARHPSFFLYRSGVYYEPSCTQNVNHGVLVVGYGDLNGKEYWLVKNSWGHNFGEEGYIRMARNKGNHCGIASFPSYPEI

One assay concerns the target Recombinant human cathepsin S (CatS) (Homo sapiens, UniProt P25774). Put plainly: Recombinant human cathepsin S (CatS) inhibition assay, fluorogenic substrate Z-Valine-Valine-Arginine-AMC.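 Further: Baculovirus-expressed CatS in pH 5.0 sodium acetate buffer with DTT and NaCl, fluorescence read each minute over 20 min, inhibition derived from rate slope.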
Details: not given
Regarding `COc1ccc(CNCc2ccc(C#Cc3cc(-c4nn(CCCN5CCOCC5)c5c4CN(S(C)(=O)=O)CC5)ccc3Cl)cc2)cc1` [Example 339, 1-[4-({2-Chloro-5-[5-(methylsulfonyl)-1-(3-morpholin-4-ylpropyl)-4,5,6,7-tetrahydro-1H-pyrazolo[4,3-c]pyridin-3-yl]phenyl}ethynyl)phenyl]-N-{[4-(methyloxy)phenyl]methyl}methanamine], the IC50 turned out to be 230 nM. As to `CS(=O)(=O)N1CCc2c(c(-c3ccc(Cl)c(C#CCN)c3)nn2CCCN2CCC(N3CCCC3=O)CC2)C1` [Example 307, 1-[1-(3-{3-[3-(3-Aminoprop-1-yn-1-yl)-4-chlorophenyl]-5-(methylsulfonyl)-4,5,6,7-tetrahydro-1H-pyrazolo[4,3-c]pyridin-1-yl}propyl)piperidin-4-yl]pyrrolidin-2-one], the IC50 is 4650 nM.

`NC(=O)N1CCc2c(c(-c3ccc(Cl)c(C#Cc4ccc(C(=O)NCc5cccnc5)cc4)c3)nn2CCCN2CCSCC2)C1` [Example 162, 3-{4-Chloro-3-[(4-{[(pyridin-3-ylmethyl)amino]carbonyl}phenyl)ethynyl]phenyl}-1-(3-thiomorpholin-4-ylpropyl)-1,4,6,7-tetrahydro-5H-pyrazolo[4,3-c]pyridine-5-carboxamide]: the IC50 was found to be 90 nM. Regarding `C[C@H]1COCCN1CCCn1nc(-c2ccc(Cl)c(C#Cc3ccc(Cl)c(C(=O)NCC4CCCNC4)c3)c2)c2c1CCN(C(=O)C(N)=O)C2` (stereo partly drawn) [Example 587, 5-{[5-(5-[Amino(oxo)acetyl]-1-{3-[(3S)-3-methylmorpholin-4-yl]propyl}-4,5,6,7-tetrahydro-1H-pyrazolo[4,3-c]pyridin-3-yl)-2-chlorophenyl]ethynyl}-2-chloro-N-(piperidin-3-ylmethyl)benzamide], the IC50 was determined as 20 nM. For the compound `CC(C)(C)OC(=O)N1CCC(C2CCN(C[C@H](O)Cn3nc(-c4ccc(Cl)c(CCc5ccc(Cl)cc5)c4)c4c3CCN(S(C)(=O)=O)C4)CC2)CC1` [Example 245, 1,1-Dimethylethyl 1′-{(2S)-3-[3-{4-chloro-3-[2-(4-chlorophenyl)ethyl]phenyl}-5-(methylsulfonyl)-4,5,6,7-tetrahydro-1H-pyrazolo[4,3-c]pyridin-1-yl]-2-hydroxypropyl}-4,4′-bipiperidine-1-carboxylate], the IC50 was determined as 30 nM. The same measure, in the same setting: with `CS(=O)(=O)c1cccc(S(=O)(=O)NCCCc2cc(-c3nn(CCCN4CCC(N5CCCC5=O)CC4)c4c3CN(S(C)(=O)=O)CC4)ccc2Cl)c1` [Example 99, N-{3-[2-Chloro-5-(5-methanesulfonyl-1-{3-[4-(2-oxo-pyrrolidin-1-yl)-piperidin-1-yl]-propyl}-4,5,6,7-tetrahydro-1H-pyrazolo[4,3-c]pyridin-3-yl)-phenyl]-propyl}-3-methanesulfonyl-benzenesulfonamide] the figure was 2450 nM; with `CS(=O)(=O)N1CCc2c(c(-c3ccc(Cl)c(C#Cc4ccc(Cl)cc4)c3)nn2CC(O)CN2CCC(N3CCCC3=O)CC2)C1` (centres unmarked) [Example 123], 10 nM. On the same count and under the same terms, the value for `CS(=O)(=O)N1CCc2c(c(-c3ccc(Cl)c(C#Cc4ccc(CNCc5ccc(Cl)cc5)cc4)c3)nn2CCCN2CCOC(CO)C2)C1` (centres unmarked) [Example 389] was 230 nM; that for `COC(=O)C1Cc2cc(C#Cc3cc(-c4nn(CCCN5CCOCC5)c5c4CN(S(C)(=O)=O)CC5)ccc3Cl)ccc2CN1` (centres unmarked) [Example 205, Methyl 6-({2-chloro-5-[5-(methylsulfonyl)-1-(3-morpholin-4-ylpropyl)-4,5,6,7-tetrahydro-1H-pyrazolo[4,3-c]pyridin-3-yl]phenyl}ethynyl)-1,2,3,4-tetrahydroisoquinoline-3-carboxylate] was 270 nM; that for `CS(=O)(=O)N1CCc2c(c(-c3ccc(Cl)c(C#Cc4ccc5c(c4)CN[C@H](C(=O)N4CCCCC4)C5)c3)nn2CCCN2CCOCC2)C1` [Example 486, (3S)-7-({2-Chloro-5-[5-(methylsulfonyl)-1-(3-morpholin-4-ylpropyl)-4,5,6,7-tetrahydro-1H-pyrazolo[4,3-c]pyridin-3-yl]phenyl}ethynyl)-3-(piperidin-1-ylcarbonyl)-1,2,3,4-tetrahydroisoquinoline] was 30 nM. Turning to `CS(=O)(=O)N1CCc2c(c(-c3ccc(Cl)c(CCc4ccc(Oc5ccccc5)cc4)c3)nn2CCCN2CCOCC2)C1` [Example 55, 3-{4-Chloro-3-[2-(4-phenoxy-phenyl)-ethyl]-phenyl}-5-methanesulfonyl-1-(3-morpholin-4-yl-propyl)-4,5,6,7-tetrahydro-1H-pyrazolo[4,3-c]pyridine], the IC50 amounted to 1070 nM. On to `CS(=O)(=O)N1CCc2c(c(-c3ccc(Cl)c(C#Cc4ccc(C(=O)NCCN5CCOCC5)cc4)c3)nn2CCCN2CCCCC2)C1` [Example 608, 4-({2-Chloro-5-[5-(methylsulfonyl)-1-(3-piperidin-1-ylpropyl)-4,5,6,7-tetrahydro-1H-pyrazolo[4,3-c]pyridin-3-yl]phenyl}ethynyl)-N-(2-morpholin-4-ylethyl)benzamide], for which the IC50 was determined as 70 nM.

As to `NC(=O)N1CCc2c(c(-c3ccc(Cl)c(C#Cc4ccc(CNCc5ccc(Cl)cc5)cc4)c3)nn2C[C@@H](O)CN2CCOCC2)C1` [Example 259, (S)-3-(4-Chloro-3-{4-[(4-chloro-benzylamino)-methyl]-phenylethynyl}-phenyl)-1-(2-hydroxy-3-morpholin-4-yl-propyl)-1,4,6,7-tetrahydro-pyrazolo[4,3-c]pyridine-5-carboxylic acid amide], the IC50 came out at 80 nM. `CS(=O)(=O)N1CCc2c(c(-c3ccc(Cl)c(C#Cc4ccc5c(c4)CN(C4CC4)CC5)c3)nn2CCCN2CCN(c3ccccc3)CC2)C1` [Example 280, 7-[(2-Chloro-5-{5-(methylsulfonyl)-1-[3-(4-phenylpiperazin-1-yl)propyl]-4,5,6,7-tetrahydro-1H-pyrazolo[4,3-c]pyridin-3-yl}phenyl)ethynyl]-2-cyclopropyl-1,2,3,4-tetrahydroisoquinoline]: the IC50 was determined as 40 nM. Take `CS(=O)(=O)N1CCc2c(c(-c3ccc(C(F)(F)F)c(CCc4ccc(Cl)cc4)c3)nn2CC(O)CN2CCC(N3CCCC3=O)CC2)C1` (centres unmarked) [Example 146, 1-{1-[3-(3-{3-[2-(4-Chloro-phenyl)-ethyl]-4-trifluoromethyl-phenyl}-5-methanesulfonyl-4,5,6,7-tetrahydro-pyrazolo[4,3-c]pyridin-1-yl)-2-hydroxy-propyl]-piperidin-4-yl}-pyrrolidin-2-one]: the IC50 amounted to 60 nM. The same measure, in the same setting: the value for `C[C@H]1COCCN1CCCn1nc(-c2ccc(Cl)c(C#Cc3ccc(Cl)c(CNCC(C)(C)O)c3)c2)c2c1CCN(C(=O)C(N)=O)C2` [Example 561, 2-(3-{4-Chloro-3-[(4-chloro-3-{[(2-hydroxy-2-methylpropyl)amino]methyl}phenyl)ethynyl]phenyl}-1-{3-[(3S)-3-methylmorpholin-4-yl]propyl}-1,4,6,7-tetrahydro-5H-pyrazolo[4,3-c]pyridin-5-yl)-2-oxoacetamide] was 30 nM; that for `C[C@H]1COCCN1CCCn1nc(-c2ccc(Cl)c(C#Cc3ccc(Cl)c(CNCCCO)c3)c2)c2c1CCN(C(=O)C(N)=O)C2` [Example 271, (S)-2-{3-(4-Chloro-3-{4-chloro-3-[(3-hydroxy-propylamino)-methyl]-phenylethynyl}-phenyl)-1-[3-(3-methyl-morpholin-4-yl)-propyl]-1,4,6,7-tetrahydro-pyrazolo[4,3-c]pyridin-5-yl}-2-oxo-acetamide] was 20 nM.

Still in this assay, the particulars now being: CatS IC50.
Take `CS(=O)(=O)N1CCc2c(c(-c3ccc(Cl)c(C#Cc4cccc(Cl)c4)c3)nn2CCCN2CCOCC2)C1` [Example 25, 3-[4-Chloro-3-(3-chloro-phenylethynyl)-phenyl]-5-methanesulfonyl-1-(3-morpholin-4-yl-propyl)-4,5,6,7-tetrahydro-1H-pyrazolo[4,3-c]pyridine]: the IC50 turned out to be 700 nM. The same measure, in the same setting: the value for `CS(=O)(=O)N1CCc2c(c(-c3ccc(Cl)c(C#Cc4cccc(CNCc5ccncc5)c4)c3)nn2CCCN2CCOCC2)C1` [Example 522, 1-[3-({2-Chloro-5-[5-(methylsulfonyl)-1-(3-morpholin-4-ylpropyl)-4,5,6,7-tetrahydro-1H-pyrazolo[4,3-c]pyridin-3-yl]phenyl}ethynyl)phenyl]-N-(pyridin-4-ylmethyl)methanamine] was 330 nM; that for `C[C@H]1COCCN1CCCn1nc(-c2ccc(Cl)c(C#Cc3ccc(F)c(CNCc4ccccc4)c3)c2)c2c1CCN(S(C)(=O)=O)C2` [Example 539, 1-[5-({2-Chloro-5-[1-{3-[(3S)-3-methylmorpholin-4-yl]propyl}-5-(methylsulfonyl)-4,5,6,7-tetrahydro-1H-pyrazolo[4,3-c]pyridin-3-yl]phenyl}ethynyl)-2-fluorophenyl]-N-(phenylmethyl)methanamine] was 210 nM; that for `CS(=O)(=O)N1CCc2c(c(-c3ccc(Cl)c(C#Cc4ccc(CNCc5ccc(Cl)cc5)cc4)c3)nn2CCCN2C[C@H]3C[C@@H]2CN3)C1` [Example 494, 1-[4-({2-Chloro-5-[1-{3-[(1R,4R)-2,5-diazabicyclo[2.2.1]hept-2-yl]propyl}-5-(methylsulfonyl)-4,5,6,7-tetrahydro-1H-pyrazolo[4,3-c]pyridin-3-yl]phenyl}ethynyl)phenyl]-N-[(4-chlorophenyl)methyl]methanamine] was 310 nM.

For `CCOC(=O)CN1CCc2cc(C#Cc3cc(-c4nn(CCCN5CCOCC5)c5c4CN(S(C)(=O)=O)CC5)ccc3Cl)ccc2C1` [Example 526, Ethyl [6-({2-chloro-5-[5-(methylsulfonyl)-1-(3-morpholin-4-ylpropyl)-4,5,6,7-tetrahydro-1H-pyrazolo[4,3-c]pyridin-3-yl]phenyl}ethynyl)-3,4-dihydroisoquinolin-2(1H)-yl]acetate], the IC50 turned out to be 370 nM. On to `NC(=O)N1CCc2c(c(-c3ccc(Cl)c(C#Cc4ccc5c(c4)CN(Cc4ccc(Cl)cc4)CC5)c3)nn2CCCN2CCOCC2)C1` [Example 465, 3-[4-Chloro-3-({2-[(4-chlorophenyl)methyl]-1,2,3,4-tetrahydroisoquinolin-7-yl}ethynyl)phenyl]-1-(3-morpholin-4-ylpropyl)-1,4,6,7-tetrahydro-5H-pyrazolo[4,3-c]pyridine-5-carboxamide], for which the IC50 worked out at 150 nM.
